Data: patent publication US20040096815A1, “Method of identifying an eventual modification of at least one biological parameter making use of living cells which are subjected to a stress and living cells which are not subjected to this same stress” (COLETICA, priority 2002, published 2004)

Legend:
[1] = test system: normal human keratinocytes in monolayer; assay: hBD2 and hBD3 expression (RT-PCR, band intensity vs actin) in keratinocytes in monolayer; assay type: cell-based; conditions: 100 ng/ml, 16 hours
Protocol: The normal human keratinocytes are cultivated in monolayer on 96-wells culture plates, in a defined medium without serum and enriched with calcium (final concentration 1.7 mM).
At 80% of confluence, the cells are placed in contact with a chemical stress, i.e. molecules which mimic a microbial attack, such as TNFα (100 ng/ml) or IFNγ (100 ng/ml), for 16 hours. Keratinocytes which are non-stressed, i.e. which are not placed in contact with the chemical substances mimicking a microbial attack, are used in a model of reconstructed epidermis.
After 16 hours, the supernatants are collected and the cells are dry frozen at −80° C. after a rinsing with PBS.
The total RNAs are extracted with the aid of a 96-wells fluo extraction kit on silica columns and are determined on a 96-wells spectrophotometer at 260 and 280 nm. The RNAs are diluted at 5 ng/μl.
The one-step qualitative RT-PCR is carried out on 50 ng of RNA (initial) in 96 wells, on actin, hBD2 and hBD3. The primers are used at 0.5 μM and are from the literature: hBD2sense: 5′-[…]-3′; hBD2antisense: 5′-GGAGCCCJTlCTGMTC CGCA-3′ (Harder J. et al., A peptide antibiotic from human skin. Nature 1997; 387: 861); hBD3sense: 5′-[…]-3′, hBD3 antisense: 5′-[…] […]-3′; actin sense: 5′-[…]-3′, actin antisense: 5′-[…]lTTC-3′ (Harder J. et al., Isolation and characterization of hBD3, a novel human inducible peptide antibiotic. J. Biol. Chem. 2001; 276: 5707-5713).
The samples are placed in a thermocycler and following a common program of amplification: 50° C., 30 mins; 94° C., 2 mins; (94° C., 30 secs; 60° C., 30 sec; 68° C., 30 sec) 32 cycles for the defensins and 30 cycles for the actin; 72° C., 10 min; 14° C., infinity.
After amplification, the products are mixed at the rate of 3 μl of products of amplification of actin+6 μl of products of amplification of hBD2+6 μl of products of amplification of hBD3. 5 μl of a mixture of filler buffer and water (2/3) are added and the final 20 μl are deposited on a pre-poured 2% agarose gel. The samples migrate in 30 minutes and the bands are visualized under UV in a black chamber and are photographed digitally.
(§1) The photographs of the gels are analyzed by an image treatment software which quantifies the intensity of the bands. The ratios of intensity of the hBD2/actin and hBD3/actin bands are compared on the one hand between the monolayer model and the 3D model (reconstructed epidermis) in a non-stressed condition, and, on the other hand, following the effect of a stress (cells treated with TNFβ or IFNγ).

[2] = test system: reconstructed epidermis (foreskin keratinocytes); assay: hBD2 and hBD3 expression (RT-PCR, band intensity vs actin) in 3D reconstructed epidermis; assay type: cell-based, human; conditions: 100 ng/ml, 24 hours
Protocol: At the end of experimentation, the reconstructed epidermis are treated in the following manner:
1 sample undergoes no treatment (model comprising reference cells=negative control).
1 sample undergoes no treatment with the actives but undergoes various types of stress at the end of culture (model comprising stressed cells=positive control), e.g. incubation in the presence of TNFα at 100 ng/ml, IFN γ100 ng/ml.
1 sample undergoes the treatment with the active (1% in the culture medium for 24 hours) and then a stress (equivalent to the positive control).
The RNAs are diluted at 5 ng/μl and are treated as described above.
as §1

## IFNγ: molecule mimicking a microbial attack, used as stress
[1]
  HBD2, ratio of intensity of the hBD2/actin bands: 0.450
  HBD3, ratio of intensity of the hBD3/actin bands: 0.370
[2]
  HBD2, ratio of intensity of the hBD2/actin bands: 0.581
  HBD3, ratio of intensity of the hBD3/actin bands: 0.492

## TNFα
[1]
  HBD2, ratio of intensity of the hBD2/actin bands: 1.240
  HBD3, ratio of intensity of the hBD3/actin bands: 0.266
[2]
  HBD2, ratio of intensity of the hBD2/actin bands: 1.617
  HBD3, ratio of intensity of the hBD3/actin bands: 0.546
